Data set [1] has as its system Staphylococcus aureus. Briefly: In vitro antibacterial activity against […]; 0.003-0.007. It counts as functional.
Data set [2] concerns Staphylococcus aureus. Description: In vivo efficacy;(sc) tested for protection against staphylococcus infections in mice. The data set is classed as functional. The following applies: read-out: PD50.
Data set [3] deals with Streptococcus pneumoniae. Briefly: In vitro antibacterial activity against Streptococcus pneumoniae; […]. The data set is classed as functional.
Data set [4] has as its system Enterococcus faecalis. Briefly: In vitro antibacterial activity against Enterococcus faecalis. It counts as functional.
The nature of data set [5]: Aqueous solubility at neutral pH. It counts as physicochemical.
Data set [6] concerns Streptococcus pneumoniae. Description: In vitro antibacterial activity against Streptococcus pneumoniae. It counts as functional.
The subject of data set [7] is Staphylococcus aureus. Briefly: In vitro antibacterial activity against Staphylococcus aureus. It counts as functional.
Data set [8] has as its system Mus musculus. Briefly: In vivo efficacy (sc) tested for protection against staphylococcus infections in mice; 1.1-3.3. It counts as functional. The following applies: read-out: PD50.
The subject of data set [9] is Mus musculus. Briefly: In vivo efficacy (sc) tested for protection against staphylococcus infections in mice; 0.3-2.8. The data set is classed as functional. The following applies: read-out: PD50.
Data set [10] deals with Staphylococcus aureus. Briefly: In vitro antibacterial activity against […]; 0.0070-0.03. It counts as functional.
Data set [11] deals with Staphylococcus aureus. Description: In vitro antibacterial activity against […]; 0.125-0.25. The data set is classed as functional.
Data set [12] has as its system Enterococcus faecalis. Description: In vitro antibacterial activity against Enterococcus faecalis; 0.06-0.125. It counts as functional.
In data set [13] the test system is Streptococcus pneumoniae. Briefly: In vitro antibacterial activity against Streptococcus pneumoniae; 0.003-0.015. It counts as functional.

From ChEMBL document CHEMBL1146687, “Novel semi-synthetic nocathiacin antibiotics: synthesis and antibacterial activity of bis- and mono-O-alkylated derivatives” (Bioorg Med Chem Lett, 2004) come the findings set out here.

Values after ≈ are worked out from the molar mass of the structure shown.

On to `C=C(NC(=O)c1csc(-c2nc3c(cc2OC)-c2nc(cs2)C(=O)N[C@@H]([C@@H](C)O)C(=O)N/C(=C(\C)OC)c2nc(cs2)C(=O)N[C@@H]2c4nc(cs4)C(=O)N[C@@H](COC(=O)c4c5c6c(cccc6n4OC)COC(=O)[C@@H](O[C@H]4C[C@](C)(O)[C@H](N(C)C)[C@H](C)O4)[C@H]2OC5)c2nc-3cs2)n1)C(N)=O`, for which the MIC against Staphylococcus aureus [1] is less than 0.007 µg/mL; in the data set with Streptococcus pneumoniae [3], less than 0.001 µg/mL; against Enterococcus faecalis [4], 0.015 µg/mL (≈ 0.0102 µM). Also, the ED50 with Staphylococcus aureus [2] amounted to 3.7 mg/kg.
In data set [5], `C=C(NC(=O)c1csc(-c2nc3c(cc2OCOP(=O)(O)O)-c2nc(cs2)C(=O)N[C@@H]([C@@H](C)O)C(=O)N/C(=C(\C)OC)c2nc(cs2)C(=O)N[C@@H]2c4nc(cs4)C(=O)N[C@@H](COC(=O)c4c5c6c(cccc6n4OCOP(=O)(O)O)COC(=O)[C@@H](O[C@H]4C[C@](C)(O)[C@H](N(C)C)[C@H](C)O4)[C@H]2OC5)c2nc-3cs2)n1)C(N)=O` returned a solubility of more than 2000 µg/mL. Also, the MIC with Streptococcus pneumoniae [6] came out at 0.015 µg/mL (≈ 0.00905 µM); in the data set on Staphylococcus aureus [7], 0.125 µg/mL (≈ 0.0754 µM); against Enterococcus faecalis [4], 0.25 µg/mL (≈ 0.151 µM). Besides, the ED50 in the data set with Staphylococcus aureus [2] amounted to 0.15 mg/kg.
In turn, `C=C(NC(=O)c1csc(-c2nc3c(cc2O)-c2nc(cs2)C(=O)N[C@@H]([C@@H](C)O)C(=O)N/C(=C(\C)OC)c2nc(cs2)C(=O)N[C@@H]2c4nc(cs4)C(=O)N[C@@H](COC(=O)c4c5c6c(cccc6n4OCOP(=O)(OC(C)(C)C)OC(C)(C)C)COC(=O)[C@@H](O[C@H]4C[C@](C)(O)[C@H](N(C)C)[C@H](C)O4)[C@H]2OC5)c2nc-3cs2)n1)C(N)=O` yielded a solubility in data set [5] of more than 2000 µg/mL. Further, the MIC against Streptococcus pneumoniae [6] came to 0.015 µg/mL (≈ 0.00904 µM); against Staphylococcus aureus [7] it was 0.125 µg/mL (≈ 0.0753 µM); against Enterococcus faecalis [4] it was 0.015 µg/mL (≈ 0.00904 µM). Besides, the ED50 with Staphylococcus aureus [2] worked out at 3 mg/kg.
Regarding `CN[C@H](CC(C)C)C(=O)N[C@H]1C(=O)N[C@@H](CC(N)=O)C(=O)N[C@H]2C(=O)N[C@H]3C(=O)N[C@H](C(=O)N[C@H](C(=O)O)c4cc(O)cc(O)c4-c4cc3ccc4O)[C@H](O)c3ccc(c(Cl)c3)Oc3cc2cc(c3O[C@@H]2O[C@H](CO)[C@@H](O)[C@H](O)[C@H]2O[C@H]2C[C@](C)(N)[C@H](O)[C@H](C)O2)Oc2ccc(cc2Cl)[C@H]1O` [VANCOMYCIN], the MIC was 0.2 µg/mL (≈ 0.138 µM) in the data set on Staphylococcus aureus [7] and less than 0.5 µg/mL against Enterococcus faecalis [4]. In addition, the ED50 in the data set on Mus musculus [8] is less than 3.3 mg/kg.
As for `C=C(NC(=O)c1csc(-c2nc3c(cc2O)-c2nc(cs2)C(=O)N[C@@H]([C@@H](C)O)C(=O)N/C(=C(\C)OC)c2nc(cs2)C(=O)N[C@@H]2c4nc(cs4)C(=O)N[C@@H](COC(=O)c4c5c6c(cccc6n4OCCC(=O)O)COC(=O)[C@@H](O[C@H]4C[C@](C)(O)[C@H](N(C)C)[C@H](C)O4)[C@H]2OC5)c2nc-3cs2)n1)C(N)=O`, the solubility in data set [5] was approximately 70 µg/mL (≈ 46.4 µM). The MIC in the data set with Streptococcus pneumoniae [6] amounted to 0.03 µg/mL (≈ 0.0199 µM); in the data set on Staphylococcus aureus [7], 0.125 µg/mL (≈ 0.0828 µM); in the data set with Enterococcus faecalis [4], 0.25 µg/mL (≈ 0.166 µM). The ED50 in the data set on Staphylococcus aureus [2] came out at 10 mg/kg.
On to `C=C(NC(=O)c1csc(-c2nc3c(cc2O)-c2nc(cs2)C(=O)N[C@@H]([C@@H](C)O)C(=O)N/C(=C(\C)OC)c2nc(cs2)C(=O)N[C@@H]2c4nc(cs4)C(=O)N[C@@H](COC(=O)c4c5c6c(cccc6n4O)COC(=O)[C@@H](O[C@H]4C[C@](C)(O)[C@H](N(C)C)[C@H](C)O4)[C@H]2OC5)c2nc-3cs2)n1)C(N)=O` [MJ347-81F4 A], for which the results for the MIC against Streptococcus pneumoniae [6], against Staphylococcus aureus [10] and in the data set on Enterococcus faecalis [4] were 0.002 µg/mL (≈ 0.00139 µM), less than 0.03 µg/mL and 0.03 µg/mL (≈ 0.0209 µM), respectively. The ED50 with Mus musculus [9] was less than 2.8 mg/kg.
For the compound `C=C(NC(=O)c1csc(-c2nc3c(cc2O)-c2nc(cs2)C(=O)N[C@@H]([C@@H](C)O)C(=O)N/C(=C(\C)OC)c2nc(cs2)C(=O)N[C@@H]2c4nc(cs4)C(=O)N[C@@H](COC(=O)c4c5c6c(cccc6n4OCCN4CCOCC4)COC(=O)[C@@H](O[C@H]4C[C@](C)(O)[C@H](N(C)C)[C@H](C)O4)[C@H]2OC5)c2nc-3cs2)n1)C(N)=O`, the MIC in the data set on Staphylococcus aureus [11] was less than 0.25 µg/mL; in the data set on Enterococcus faecalis [12], less than 0.125 µg/mL; in the data set with Streptococcus pneumoniae [13], less than 0.015 µg/mL. Further, in the data set with Staphylococcus aureus [2], the ED50 stood at 3.4 mg/kg.
On to `C=C(NC(=O)c1csc(-c2nc3c(cc2O)-c2nc(cs2)C(=O)N[C@@H]([C@@H](C)O)C(=O)N/C(=C(\C)OC)c2nc(cs2)C(=O)N[C@@H]2c4nc(cs4)C(=O)N[C@@H](COC(=O)c4c5c6c(cccc6n4OCCCS(=O)(=O)O)COC(=O)[C@@H](O[C@H]4C[C@](C)(O)[C@H](N(C)C)[C@H](C)O4)[C@H]2OC5)c2nc-3cs2)n1)C(N)=O`, for which the solubility in data set [5] is more than 2000 µg/mL. The MIC with Streptococcus pneumoniae [6] came to 0.007 µg/mL (≈ 0.00449 µM); in the data set with Staphylococcus aureus [7], 0.125 µg/mL (≈ 0.0801 µM); with Enterococcus faecalis [4], 0.125 µg/mL (≈ 0.0801 µM). The ED50 with Staphylococcus aureus [2] stood at 4 mg/kg.
The compound `C=C(NC(=O)c1csc(-c2nc3c(cc2OCCCS(=O)(=O)O)-c2nc(cs2)C(=O)N[C@@H]([C@@H](C)O)C(=O)N/C(=C(\C)OC)c2nc(cs2)C(=O)N[C@@H]2c4nc(cs4)C(=O)N[C@@H](COC(=O)c4c5c6c(cccc6n4OCCCS(=O)(=O)O)COC(=O)[C@@H](O[C@H]4C[C@](C)(O)[C@H](N(C)C)[C@H](C)O4)[C@H]2OC5)c2nc-3cs2)n1)C(N)=O` gave a solubility in [5] of more than 2000 µg/mL. Besides, the values for the MIC against Streptococcus pneumoniae [6], with Staphylococcus aureus [7] and against Enterococcus faecalis [4] were 0.5 µg/mL (≈ 0.297 µM), more than 128 µg/mL and 128 µg/mL (≈ 76.1 µM), respectively.
